Laboratory results: patent US11639412B2, “Acute care cover for severe injuries” (priority 2016, dated 2023)

Tested on: Staphylococcus aureus
Test: Zone of inhibition assay
Type: cell-based
Settings: 37° C. for 72 hours
Procedure: Zone-of-inhibition and Drug Delivery Assay—Antimicrobial activity of ciprofloxacin- and tetracycline-loaded polyHIPEs was assessed through a zone of inhibition assay. […] The polyHIPE discs were incubated in the drug solutions at room temperature overnight. Prior to being frozen and lyophilized, the discs were briefly rinsed with methanol. A plate of Staphylococcus aureus was streaked using cells from frozen stocks; single colonies, selected from the plate, were then used to inoculate 10 mL of liquid LB media, which were cultured overnight at 37° C. The starter cultures were diluted with fresh LB to an OD600 of approximately 1.1 before being further diluted in 1:5 ratio of culture to fresh, liquid LB media. To inoculate LB agar plates, 250 μL of the diluted culture was spread evenly across the surface of the plates, which were then incubated for 30 minutes at 37° C. The LB plates were then removed from the incubator and divided into 4 quadrants with the drug-loaded or control polyHIPE discs placed in the center of each quadrant. The plates were then returned to the incubator and cultured for approximately 24 hours. Following the 24-hour period of incubation, the plates were removed, photographed next to a standard ruler and the polyHIPEs transferred to a freshly inoculated plate which was incubated for another 24 hours. […]

O=C(O)c1cn(C2CC2)c2cc(N3CCNCC3)c(F)cc2c1=O [ciprofloxacin]
antibiotic activity within polyHIPEs after incubation: not diminished
